Data from PubChem BioAssay (NCI).
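Growth conditions: 96-well plates. Treatment: test compound, 48 hours, 5 concentrations. Analysis: linear interpolation between bracketing concentrations; unreached endpoints set to highest concentration. The concentration for 50% growth inhibition is given as GI50. TGI denotes the concentration required for complete inhibition of growth.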

Key:
Test in all cases: NCI tumour cell line growth inhibition, 48 h
[1] = system: BT-549 breast
[2] = system: CAKI-1 renal
[3] = system: DU-145 prostate
[4] = system: MALME-3M melanoma
[5] = system: NCI/ADR-RES ovarian
[6] = system: OVCAR-3 ovarian
[7] = system: SF-268 CNS
[8] = system: SK-MEL-5 melanoma
[9] = system: SNB-78 CNS
[10] = system: M19-MEL melanoma

NC(=O)[C@H]1CCN(c2ncnc(N)c2F)C[C@@H]1N1CCC[C@@H](Nc2cc(Cl)cc(C(F)(F)F)c2)C1=O
GI50 [1]: 21.4 µM | TGI [1]: 51.1 µM | GI50 [2]: 6.67 µM | TGI [2]: 89.7 µM | GI50 [3]: 10.8 µM | TGI [3]: > 100 µM | GI50 [4]: 19.1 µM | TGI [4]: 42.8 µM | GI50 [5]: 29.7 µM | TGI [5]: > 100 µM | GI50 [6]: 28.5 µM | TGI [6]: > 100 µM | GI50 [7]: 23.8 µM | TGI [7]: > 100 µM | GI50 [8]: 16.3 µM | TGI [8]: 30 µM

c1ccc2[nH]c(-c3ccc(N4CCN(c5ccc(-c6nc7ccccc7[nH]6)cc5)CC4)cc3)nc2c1
GI50 [1]: > 100 µM | TGI [1]: > 100 µM | GI50 [2]: > 100 µM | TGI [2]: > 100 µM | GI50 [3]: 37.5 µM | TGI [3]: > 100 µM | GI50 [4]: > 100 µM | TGI [4]: > 100 µM | GI50 [5]: > 100 µM | TGI [5]: > 100 µM | GI50 [6]: > 100 µM | TGI [6]: > 100 µM | GI50 [7]: > 100 µM | TGI [7]: > 100 µM | GI50 [8]: > 100 µM | TGI [8]: > 100 µM

CCN1C(=O)N(CC)C2C1NN=c1s/c(=C3\C(=O)N(C(C)C)c4ccccc43)c(=O)n12 (stereo unspecified)
GI50 [1]: 1.38 µM | TGI [1]: 66.4 µM | GI50 [2]: 0.423 µM | TGI [2]: > 54.4 µM | GI50 [3]: 0.377 µM | TGI [3]: 3.13 µM | GI50 [4]: 1.18 µM | TGI [4]: > 100 µM | GI50 [5]: 0.3 µM | TGI [5]: 3.14 µM | GI50 [6]: 0.294 µM | TGI [6]: 0.841 µM | GI50 [7]: 0.722 µM | TGI [7]: > 70.3 µM | GI50 [8]: 0.394 µM | TGI [8]: 2.33 µM

O=C(NCCCCCCNC(=O)c1cccc2ccccc12)c1cccc2ccccc12
TGI [2]: 66.3 µM | TGI [4]: > 100 µM | TGI [6]: 71 µM | TGI [7]: 81.9 µM | TGI [8]: > 100 µM | TGI [9]: 48.9 µM

CCN(CC)CCOc1ccc(C(=C(C)c2ccc(Cl)cc2)c2ccc(OCCN(CC)CC)cc2)cc1
GI50 [1]: 1.33 µM | TGI [1]: 4.22 µM | GI50 [2]: 0.504 µM | TGI [2]: 1.02 µM | GI50 [3]: 1.09 µM | TGI [3]: 3.47 µM | GI50 [4]: 0.563 µM | TGI [4]: 1.09 µM | GI50 [5]: 0.657 µM | TGI [5]: 1.4 µM | GI50 [6]: 0.643 µM | TGI [6]: 1.36 µM | GI50 [7]: 0.659 µM | TGI [7]: 1.49 µM | GI50 [8]: 0.592 µM | TGI [8]: 1.06 µM

N#CC(C#N)=Cc1ccc(-c2ccc(-c3nc4ccccc4s3)cc2)o1
GI50 [1]: 32.9 µM | TGI [1]: 96.1 µM | GI50 [2]: 25 µM | TGI [2]: > 100 µM | GI50 [3]: 18.2 µM | TGI [3]: 78.2 µM | GI50 [4]: 22.2 µM | TGI [4]: > 100 µM | GI50 [5]: 4.16 µM | TGI [5]: 14.3 µM | GI50 [6]: 66.9 µM | TGI [6]: > 100 µM | GI50 [7]: 27.6 µM | TGI [7]: > 100 µM | GI50 [8]: 6.01 µM | TGI [8]: 76.2 µM

COc1ccc2c(c1)CCC1C2CCC2(C)C1CCC2(O)CNC(=O)CCCCC1CCSS1 (stereo unspecified)
GI50 [1]: 19.3 µM | TGI [1]: 98.4 µM | GI50 [2]: 18.1 µM | TGI [2]: 40.2 µM | GI50 [3]: 46.3 µM | TGI [3]: > 100 µM | GI50 [4]: > 100 µM | TGI [4]: > 100 µM | GI50 [5]: 7.28 µM | TGI [5]: > 100 µM | GI50 [6]: 8.65 µM | TGI [6]: 29.2 µM | GI50 [7]: 15.9 µM | TGI [7]: > 100 µM | GI50 [8]: 7.15 µM | TGI [8]: > 100 µM

Fc1ccc2[nH]cc(Cc3c[nH]c4ccc(F)cc34)c2c1
GI50 [1]: 13.9 µM | TGI [1]: 30.3 µM | GI50 [2]: 12.1 µM | TGI [2]: 34.3 µM | GI50 [3]: 27.8 µM | TGI [3]: 85.7 µM | GI50 [4]: 16.7 µM | TGI [4]: 33.8 µM | GI50 [5]: 17.2 µM | TGI [5]: 90 µM | GI50 [6]: 19.5 µM | TGI [6]: 52.8 µM | GI50 [7]: 17.5 µM | TGI [7]: 77.6 µM | GI50 [8]: 17.5 µM | TGI [8]: 35.3 µM

CC1(Sc2ccccc2)CN(Cc2ccccc2)C1=O (stereo unspecified)
TGI [10]: > 100 µM | TGI [6]: > 100 µM | TGI [7]: > 100 µM | TGI [8]: > 100 µM | TGI [9]: > 100 µM

COC(=O)CCC(=O)N1Cc2cc(C)ccc2N(C(=O)CCC(=O)OC)Cc2cc(C)ccc21
TGI [2]: > 100 µM | TGI [10]: > 100 µM | TGI [6]: > 100 µM | TGI [7]: > 100 µM | TGI [8]: > 100 µM | TGI [9]: > 100 µM

N#Cc1ncc(/N=C/c2ccc(N(CCCl)CCCl)cc2)s1
GI50 [1]: 29.6 µM | TGI [1]: > 100 µM | GI50 [2]: 2.22 µM | TGI [2]: 8.18 µM | GI50 [3]: 5.62 µM | TGI [3]: 57.1 µM | GI50 [4]: 30.8 µM | TGI [4]: > 100 µM | GI50 [5]: 7.36 µM | TGI [5]: > 100 µM | GI50 [6]: 14.5 µM | TGI [6]: 45 µM | GI50 [7]: 15.6 µM | TGI [7]: > 100 µM | GI50 [8]: 27.9 µM | TGI [8]: > 100 µM

O=C(CCN1CCCC1)Nc1ccc2c(NCc3ccc(F)cc3)c3ccccc3nc2c1
GI50 [1]: 1.2 µM | TGI [1]: 2.67 µM | GI50 [2]: 1.42 µM | TGI [2]: 5.42 µM | GI50 [3]: 0.368 µM | TGI [3]: 1.54 µM | GI50 [4]: 1.11 µM | TGI [4]: 2.4 µM | GI50 [5]: 9.11 µM | TGI [5]: 43.9 µM | GI50 [6]: 0.488 µM | TGI [6]: 1.92 µM | GI50 [7]: 0.465 µM | TGI [7]: 1.91 µM | GI50 [8]: 1.44 µM | TGI [8]: 2.76 µM

CN(C)CCNC(=O)c1cccn2c(=O)c3cc4ccccc4cc3nc12
GI50 [1]: 0.68 µM | TGI [1]: 2.83 µM | GI50 [2]: 0.0711 µM | TGI [2]: 0.593 µM | GI50 [3]: 0.103 µM | TGI [3]: 0.391 µM | GI50 [4]: 0.116 µM | TGI [4]: 0.617 µM | GI50 [5]: 0.101 µM | TGI [5]: 0.468 µM | GI50 [6]: 0.16 µM | TGI [6]: 0.573 µM | GI50 [7]: 0.126 µM | TGI [7]: 3.38 µM | GI50 [8]: 0.131 µM | TGI [8]: 0.476 µM

CCOC(=O)C=C1CCN(C(=O)c2ccccc2)CC1
TGI [10]: > 100 µM | TGI [4]: > 100 µM | TGI [6]: > 100 µM | TGI [7]: > 100 µM | TGI [8]: > 100 µM | TGI [9]: > 100 µM

CC1=C2CCCC2C/C(=N/Nc2ccc([N+](=O)[O-])cc2[N+](=O)[O-])CC1 (stereo unspecified)
TGI [2]: > 100 µM | TGI [10]: > 100 µM | TGI [4]: > 100 µM | TGI [6]: > 100 µM | TGI [7]: > 100 µM | TGI [8]: > 100 µM

CSc1nnc(CCSc2ccnc3c(C(F)(F)F)cccc23)o1
GI50 [1]: 31.4 µM | TGI [1]: > 100 µM | GI50 [2]: 31.8 µM | TGI [2]: > 100 µM | GI50 [3]: > 100 µM | TGI [3]: > 100 µM | GI50 [4]: > 100 µM | TGI [4]: > 100 µM | GI50 [5]: 72.2 µM | TGI [5]: > 100 µM | GI50 [6]: 91.9 µM | TGI [6]: > 100 µM | GI50 [7]: 71.5 µM | TGI [7]: > 100 µM | GI50 [8]: 46.1 µM | TGI [8]: > 100 µM

C[C@]12CC[C@H]3[C@@H](CCC4=CC(=O)CC[C@@H]43)[C@@H]1CC[C@@H]2OC(=O)N(CCCl)N=O
GI50 [1]: 11.2 µM | TGI [1]: 26 µM | GI50 [2]: 0.51 µM | TGI [2]: 27.6 µM | GI50 [3]: 0.433 µM | TGI [3]: 4.41 µM | GI50 [4]: 11.3 µM | TGI [4]: 28.9 µM | GI50 [5]: 2.96 µM | TGI [5]: 31.9 µM | GI50 [6]: 7.83 µM | TGI [6]: 21.8 µM | GI50 [7]: 0.167 µM | TGI [7]: 17.6 µM | GI50 [8]: 1.99 µM | TGI [8]: 16.1 µM
